This is an account of results in the supplement of paper PMC9663587.

Compound in one test: CCN1CCN(Cc2ccc(Nc3ncc(F)c(-c4cc(F)c5nc(C)n(C(C)C)c5c4)n3)nc2)CC1
In words: GR value, 72 h; higher = faster growth (1 = untreated, <0 = killing).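 Further: breast cancer and non-malignant breast epithelial lines, nine half-log doses, viable cells counted by Hoechst and LIVE/DEAD dye imaging versus time-zero plates and DMSO controls.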 The conditions noted are these: 0.03162 µM.
Regarding HCC1143, the GR value is 0.604 GR.

Consider HCC1395, for which the GR value was determined as 0.594 GR.

Staying with this test, now noted: 0.1 µM.
On to EFM19, for which the GR value came to 0.359 GR.

For EVSAT, the GR value worked out at 0.761 GR.

In the case of HCC38, the GR value was 0.275 GR.

With HCC70, the GR value stood at 1.2 GR.

Consider HCC1143, for which the GR value was 0.406 GR.

With HCC1395, the GR value came out at 0.387 GR.

The same test, now with this note: 0.3162 µM.
In the case of EFM19, the GR value stood at 0.337 GR.

As to EVSAT, the GR value amounted to 0.679 GR.

Take HCC38: the GR value was found to be 0.206 GR.

On to HCC70, for which the GR value came out at 1.06 GR.

Regarding HCC1143, the GR value turned out to be 0.282 GR.

Regarding HCC1395, the GR value stood at 0.361 GR.

Staying with this test, now noted: 1 µM.
Consider EFM19, for which the GR value was found to be 0.327 GR.

Take EVSAT: the GR value came to 0.521 GR.

For HCC38, the GR value came out at 0.122 GR.

In the case of HCC70, the GR value was 0.852 GR.

As to HCC1143, the GR value was 0.178 GR.

As to HCC1395, the GR value amounted to 0.283 GR.

The same test, now with this note: 3.162 µM.
Take EFM19: the GR value came to 0.359 GR.

Take EVSAT: the GR value stood at 0.393 GR.

As for HCC38, the GR value was -0.0767 GR.

As for HCC70, the GR value is -0.0922 GR.

As for HCC1143, the GR value is 0.142 GR.

As to HCC1395, the GR value was determined as 0.0357 GR.

Staying with this test, now noted: 10 µM.
Take EFM19: the GR value was determined as 0.269 GR.

For EVSAT, the GR value was -0.545 GR.

Turning to HCC38, the GR value was -0.335 GR.

As to HCC70, the GR value is -0.82 GR.

Take HCC1143: the GR value was -0.0908 GR.

Consider HCC1395, for which the GR value is -0.543 GR.

Compound in a further test: CCc1cnn2c(NCc3ccc[n+]([O-])c3)cc(N3CCCC[C@H]3CCO)nc12
The description is as above. The conditions noted are these: 0.0001 µM.
For the cell line EFM19, the GR value turned out to be 1.1 GR.

Take EVSAT: the GR value is 0.951 GR.

For HCC38, the GR value was 0.989 GR.

In the case of HCC70, the GR value is 1.05 GR.

Turning to HCC1143, the GR value came out at 0.993 GR.

As for HCC1395, the GR value was found to be 1.09 GR.

The test is the same for the next values; noted with them: 0.0003162 µM.
Take EFM19: the GR value is 1.09 GR.

Consider EVSAT, for which the GR value came to 0.967 GR.

Regarding HCC38, the GR value came out at 1.05 GR.

With HCC70, the GR value was 0.913 GR.

In the case of HCC1143, the GR value came out at 0.988 GR.

Regarding HCC1395, the GR value came out at 1.1 GR.

The same test, now with this note: 0.001 µM.
EFM19: the GR value turned out to be 1.15 GR.

In the case of EVSAT, the GR value came to 0.959 GR.

HCC38: the GR value came out at 1.05 GR.

Take HCC70: the GR value stood at 1.13 GR.

For the cell line HCC1143, the GR value was 0.99 GR.

Take HCC1395: the GR value stood at 1.05 GR.

Staying with this test, now noted: 0.003162 µM.
Turning to EFM19, the GR value was determined as 1.15 GR.

Turning to EVSAT, the GR value came to 0.994 GR.

For the cell line HCC38, the GR value amounted to 1.14 GR.

On to HCC70, for which the GR value is 1.26 GR.

For the cell line HCC1143, the GR value turned out to be 1.04 GR.

Turning to HCC1395, the GR value amounted to 1.04 GR.

The test is the same for the next values; noted with them: 0.01 µM.
Turning to EFM19, the GR value is 1.05 GR.

With EVSAT, the GR value turned out to be 1.01 GR.

As to HCC38, the GR value came to 0.761 GR.

On to HCC70, for which the GR value came out at 0.835 GR.

As for HCC1143, the GR value is 0.95 GR.

Take HCC1395: the GR value stood at 0.649 GR.

Still in this test, the particulars now being: 0.03162 µM.
EFM19: the GR value was determined as 0.509 GR.

With EVSAT, the GR value amounted to 0.299 GR.

On to HCC38, for which the GR value was -0.374 GR.

With HCC70, the GR value is -0.865 GR.

For HCC1143, the GR value was -0.238 GR.

With HCC1395, the GR value was -0.319 GR.

The same test, now with this note: 0.1 µM.
As to EFM19, the GR value was -0.295 GR.

Turning to HCC38, the GR value was -0.453 GR.

HCC70: the GR value is -0.892 GR.

For HCC1143, the GR value is -0.231 GR.

Consider HCC1395, for which the GR value is -0.482 GR.

The test is the same for the next values; noted with them: 0.3162 µM.
EFM19: the GR value was -0.448 GR.

Take HCC38: the GR value was -0.435 GR.

Consider HCC70, for which the GR value was -0.885 GR.

On to HCC1143, for which the GR value is -0.252 GR.

As to HCC1395, the GR value is -0.507 GR.

Still in this test, the particulars now being: 1 µM.
Regarding EFM19, the GR value was -0.534 GR.

HCC38: the GR value was -0.453 GR.

In the case of HCC70, the GR value was -0.901 GR.

As for HCC1143, the GR value was -0.228 GR.

With HCC1395, the GR value was -0.488 GR.

Compound in the next test: CN(C)C(=O)c1cc2cnc(Nc3ccc(N4CCNCC4)cn3)nc2n1C1CCCC1 [LEE011/Ribociclib]
The test is described as above. The conditions noted are these: 0.001 µM.
EFM19: the GR value worked out at 0.892 GR.

On to EVSAT, for which the GR value is 0.968 GR.

With HCC38, the GR value stood at 0.807 GR.

For HCC70, the GR value amounted to 1.03 GR.

In the case of HCC1143, the GR value came out at 0.856 GR.

Regarding HCC1395, the GR value worked out at 0.88 GR.

The same test, now with this note: 0.003162 µM.
Consider EFM19, for which the GR value worked out at 0.802 GR.

Turning to EVSAT, the GR value came out at 0.932 GR.

As to HCC38, the GR value amounted to 0.769 GR.

For HCC70, the GR value amounted to 1.17 GR.

Take HCC1143: the GR value is 0.876 GR.

Regarding HCC1395, the GR value is 0.843 GR.

Staying with this test, now noted: 0.01 µM.
Turning to EFM19, the GR value came to 0.825 GR.

EVSAT: the GR value turned out to be 0.956 GR.

For HCC38, the GR value turned out to be 0.692 GR.

As for HCC70, the GR value came to 1.01 GR.

Regarding HCC1143, the GR value was 0.848 GR.

With HCC1395, the GR value came out at 0.691 GR.

The test is the same for the next values; noted with them: 0.03162 µM.
On to EFM19, for which the GR value stood at 0.914 GR.

In the case of EVSAT, the GR value amounted to 0.939 GR.

For the cell line HCC38, the GR value came out at 0.727 GR.

Consider HCC70, for which the GR value amounted to 1.04 GR.

On to HCC1143, for which the GR value amounted to 0.74 GR.

For the cell line HCC1395, the GR value turned out to be 0.847 GR.

The same test, now with this note: 0.1 µM.
In the case of EFM19, the GR value was determined as 0.688 GR.

Turning to EVSAT, the GR value stood at 0.901 GR.

Consider HCC38, for which the GR value turned out to be 0.577 GR.

With HCC70, the GR value came to 1.09 GR.

As for HCC1143, the GR value was determined as 0.753 GR.

Take HCC1395: the GR value came out at 0.657 GR.

Still in this test, the particulars now being: 0.3162 µM.
For the cell line EFM19, the GR value is 0.61 GR.

In the case of EVSAT, the GR value was 0.821 GR.

HCC38: the GR value came out at 0.511 GR.

HCC70: the GR value stood at 1.03 GR.

As for HCC1143, the GR value was 0.712 GR.

HCC1395: the GR value stood at 0.674 GR.

The same test, now with this note: 1 µM.
With EFM19, the GR value came out at 0.6 GR.

As to EVSAT, the GR value worked out at 0.862 GR.

With HCC38, the GR value stood at 0.532 GR.
